Experimental data: patent US5147856A, “Method for inhibiting blood vessel blockage using octapeptide compositions” (Societe de Conseils de Recherches et d'Applications …, priority 1988, dated 1992)
Several values for one entry are separate records, joined by “and”; a condition that tells them apart may be missing. Equal entries are not always repeated. Square brackets hold non-standard residues; d marks the D form. Mpa = O=C(O)CCS

Experiments:
[1] = test system: myointimal cell proliferation in the aortas of rabbits; test: Rabbit aorta 72 hours after balloon angioplasty: wet weight, protein, DNA/protein, 3-H thymidine incorporation (Example 6); format: in vivo; details: for DNA/Protein ratio, in words: FIG. 3; for Rates of cell proliferation by 3-H thymidine incorporation, in words: FIG. 4
Procedure: New Zealand White Rabbits were anesthetised with Rompun (Xylazine) and Ketalar (Ketamine) and a cannula (3F Fogarty) was inserted from the femoral artery. The balloon was inflated at a constant pressure and the aorta was de-endothelialised by angioplasty. The process was repeated three times and the wound site was closed. The animals were sacrificed 72 hours after balloon angioplasty and after removing the adventitia the aorta was cut into fine rings. These rings were incubated in the presence of 3-H thymidine and the radioactivity was determined after processing the tissue. Simultaneous measurements of DNA and protein contents were also made in these tissues.
Eight injections of Angiopeptin were made: on the morning and evening of the day prior to ballooning; two on the day of the procedure; and two on each of the following two days. The total daily dose was 2, 20, or 200 μg/Kg body weight.

[2] = test system: Smooth Muscle Pig Left Coronary Artery Explants; test: H3-thymidine incorporation in pig left coronary artery explants (Example 7); format: cell-based; details: 24 hr, individual segments
Procedure: Domestic pig hearts were obtained from a slaughter house immediately after the animals were sacrificed. The hearts were harvested and placed in ice-cold Kreb's Ringer buffer and transported to the laboratory. The left coronary artery (LAD) was dissected in aseptic conditions and divided into pieces of 5 mm. The segments were denuded from the endothelium by gently introducing a metallic rod in the lumen. The tissues were placed in sterile multiwell culture dishes in 1 ml of culture media (DMEM with antibiotics) and without fetal calf serum. H^3 -thymidine (2.5 uCi/ml) and increasing concentrations of angiopeptin (10-1000 ng/ml) were added to the medium. Segments which were incubated with 3 different concentrations of forskolin were used as a positive control in each experiment. The incubation period was 24 hr at 37° C. and 5% CO2. The tissues were washed with phosphate saline buffer and placed in a solution of cold thymidine for one hour and then frozen in liquid nitrogen, ground and lysed with a hypotonic solution. The lysed tissues were further incubated with proteinase K overnight at 50° C. The radioactivity, content of protein and DNA were measured.

[3] = test system: myointimal proliferation of the carotid artery; test: Air-drying injury of the rat carotid artery, intimal/media ratio (Example 2); format: in vivo; details: for Intimal/Media Ratio: mean ± SE; for Inhibition of myointimal (smooth muscle cell) proliferation of the carotid artery, in words: administered from two days prior to injury, at the doses used (20 and 50 μg/kg/day)
Procedure: Male Sprague-Dawley rats, weighing […], obtained from Charles River were kept under controlled lighting conditions and fed rat chow and water ad libitum. Under sodium pentobarbital anesthesia the intima of the right carotid artery was subjected to an air-drying injury described by Fishman et al, Lab Invest., 32, 339 (1975). The procedure causes intimal hyperplasia that largely consists of proliferating intimal smooth muscle cells. In this model approximately 4 cm of the vessel is isolated and drained of blood. Air (20 ml/min) is blown through a 30 gauge needle for 5 min whereafter blood flow is reestablished. The contralateral carotid artery was also exposed but not air-dried. The rats were sacrificed 15 days later.
The experiment consisted of a control group and ten treatment groups. The somatostatin analogs used were hepta- or octapeptides, namely BIM 23014 (Angiopeptin), BIM 23012, BIM 23027, BIM 23030 and BIM 23034. […] The animals were pretreated two days prior to the procedure and for a further five days following the endothelial injury. Two additional groups of animals were added in order to study whether Angiopeptin (20 μg/kg/day and 50 μg/kg/day) administered 30 min prior to the endothelial injury and for a further five days would protect against the myointimal proliferation.
The animals were sacrificed on day 15 following the injury by exsanguination. The vascular system was flushed with normal saline and perfusion-fixed at 80 mmHg with 10% formalin. The carotid arteries were subsequently fixed, embedded and sectioned for light microscopy and morphometric analysis. The maximal intimal/media ratio is the distance from the lumen to the internal elastic lamina and the distance from the internal elastic lamina to the external elastic lamina. The distances were determined in each vessel using a digitizing system attached to a light microscope. The determinations were performed on three different cross sections of the vessel and each section was measured three times. The mean was calculated for each vessel. Differences between the groups were evaluated using Student's unpaired t-test.

[4] = test system: smooth muscle cell proliferation in the aorta and femoral arteries; test: Primate balloon catheter injury of aorta and femoral arteries (Example 5); format: in vivo, cynomologous macaque; details: aorta and left and right femoral arteries; i.m. slow release system, 50 μg/kg/day; one treated primate vs one control; five weeks
Procedure: In order to obtain a primate coronary angioplasty model which would be suited for evaluation of Angiopeptin, a feasibility study was performed on primates which were made available from the colony at Bowman-Gray Medical School, Winston-Salem, North Carolina. These animals were culled from the colony due to failure of the primates to satisfactorily elevate blood lipids when administered a high cholesterol diet. Young male cynomologous macaques weighing approximately 3.5 kg were used after an equilibration period of more than a week in a primate facility.
The animals were sedated with Ketamine and maintained with 1% halothane in oxygen. The aorta and femoral arteries were injured by a balloon catheter (USCI, Band). After five weeks the primates were anesthetized and sacrificed. The aorta and femoral arteries were removed and fixed in formaldehyde for morphometric analysis. […]
The maximal intimal/media ratio (distance from lumen to internal elastic lamina/distance from internal elastic lamina to external elastic lamina) was determined in each vessel using a digitizing system attached to a light microscope. The determinations were done on three different cross sections of the vessel and each section was measured three times and each three measurements were averaged.

[5] = test system: hyperplasia of the right carotid artery; test: Air-drying injury of the rat right carotid artery, ratio of width of intimal and medial layers (Example 4); format: in vivo; details: 50 μg/kg/day s.c. twice a day
Procedure: Angiopeptin was administered s.c. twice a day 50 μg/kg/day to male Sprague-Dawley (Charles River) rats, 250-350 g each. After two days of pre-treatment, a lesion was made on the third day after the morning dose by air-drying the right carotid artery while the rats were under anesthesia (Ketamine-Innovar, i.m.). Treatment was continued on day: 4, 5, 6, and 7. The rats were sacrificed on day 14 following the injury. After in-situ fixation at constant pressure, with 10% formalin, the tissues were prepared to form morphometrics.
Hyperplasia was measured as the ratio of width of intimal and medial layers. For each rat, 3 different histological sections were measured and the morphometrics was done 3 times on each section.

growth hormone release = details: cited from earlier work; for Inhibition of growth hormone release, in words: in vivo; for Potency for growth hormone suppression in vivo, relative to somatostatin 14: rats, compared to somatostatin 14 (=1)
[6] = test system: intimal hyperplasia of aorta and iliac arteries; test: Myointimal hyperplasia in rabbits after balloon angioplasty (Example 3); format: in vivo, rabbit; details: for % Intimal hyperplasia: 20 μg/kg twice daily s.c., individual samples; for Percentage of inhibition of myointimal hyperplasia: 20 μg/kg/d
Procedure: Female and Male, white New Zealand rabbits (2.8-3.0 kg) were divided into two groups (A and B). Group A (vehicle control) received subcutaneous injections of physiological saline (0.2 ml) twice daily. […] The animals were treated the day before angioplasty, and until sacrifice about 3 weeks later. The angioplasty was done under general anesthesia with Ketamine and Xylazine. Each animal's left iliac artery and aorta were denuded with an angioplasty catheter (Fogarty). The angioplasty catheter was inserted into the left femoral artery and passed through the vessel to the thoracic aorta. The catheter was then reciprocated three times. The animals were all sacrificed from days 22-24 after angioplasty. The aorta and iliac arteries were fixed in situ via perfusion with formaldehyde under constant perfusion pressure.
Intimal hyperplasia was determined on elastin-stained (Van Giesen) horizontally-cut sections. The sections were obtained from (i) the aorta at the level of the renal artery, (ii) the common iliac artery at the level of bifurcation, and (iii) the external iliac artery just above the inguinal ligament. The area of intimal hyperplasia and total vessel area were determined by morphometry. The percentage of intimal hyperplasia was expressed as follows: [formula]
Single determinations were made on three segments of each aorta and the two iliac arteries of each animal. The percentage of intimal hyperplasia was determined as the mean of the two closest measurements of each vessel.

[7] = 20 μg/kg/day s.c. in two divided doses, from two days prior to injury and five days postinjury, sacrifice day 15
[8] = 50 μg/kg/day s.c. in two divided doses, from two days prior to injury and five days postinjury, sacrifice day 15
[9] = common iliac artery, female rabbits
[10] = common iliac artery, male rabbits
[11] = external iliac artery, female rabbits

CC(C)[C@@H]1NC(=O)[C@H](CCCCN)NC(=O)[C@@H](Cc2c[nH]c3ccccc23)NC(=O)[C@H](Cc2ccc(O)cc2)NC(=O)[C@@H](NC(=O)[C@H](N)Cc2ccc3ccccc3c2)CSSC[C@@H](C(=O)N[C@H](C(N)=O)[C@@H](C)O)NC1=O [Angiopeptin, D-Nal-Cys-Tyr-D-Trp-Lys-Val-Cys-Thr-NH2]
Total protein content of injured aortas, in words ([1]; 2 μg/kg, FIG. 2): lowered | DNA/Protein ratio, in words ([1]; 20 μg/kg body weight): significantly lowered | Rates of cell proliferation by 3-H thymidine incorporation, in words ([1]; 20 μg/kg body wt.): significantly lower | DNA/Protein ratio, in words ([1]; 200 μg/kg body wt.): reflected the inhibitory influence | Rates of cell proliferation by 3-H thymidine incorporation, in words ([1]; 200 μg/kg): still inhibited | Wet weight of aortas, in words ([1]; 2, 20, 200 μg/kg body wt. total daily dose, FIG. 1): does not seem to influence | Levels of total proteins, in words ([1]; higher doses (20 and 200 μg/kg), FIG. 2): did not affect | Rates of cell proliferation by 3-H thymidine incorporation, in words ([1]; overall): significantly inhibited | CPM (H3-thymidine radioactivity) ([2]; Angiopeptin 10 ng/ml): 35113.84 CPM and 46392.32 CPM and 27312.80 CPM and 55980.00 CPM | CPM (H3-thymidine radioactivity) ([2]; Angiopeptin 20 ng/ml): 26279.81 CPM and 39027.27 CPM and 39706.01 CPM and 21562.08 CPM | CPM (H3-thymidine radioactivity) ([2]; Angiopeptin 50 ng/ml): 18942.16 CPM and 24269.18 CPM and 40768.09 CPM and 18983.78 CPM | CPM (H3-thymidine radioactivity) ([2]; Angiopeptin 100 ng/ml): 20794.85 CPM and 32402.31 CPM and 22033.48 CPM and 26227.64 CPM | CPM (H3-thymidine radioactivity) ([2]; Angiopeptin 1000 ng/ml): 18325.51 CPM and 27260.98 CPM and 30226.99 CPM and 32344.58 CPM | Intimal/Media Ratio [3, 7]: 1.7 ± 0.2 | Intimal/Media Ratio ([3]; 20 μg/kg/day, pretreatment 30 min prior to injury and for a further five days): 1.6 ± 0.9 | Inhibition of myointimal proliferation, in words ([3]; 50 μg/kg/day from 30 min prior to injury and for a further five days): significantly (p<0.01) inhibited | Intimal/Media Ratio [3, 8]: 1.1 ± 0.2 | Intimal/Media Ratio ([3]; 50 μg/kg/day, pretreatment 30 min prior to injury and for a further five days): 1.0 ± 0.3 | Inhibition of myointimal (smooth muscle cell) proliferation of the carotid artery, in words [3]: inhibited significantly | Inhibition of myointimal proliferation, in words ([3]; high dose 50 μg/kg/day, from two days prior to injury): effective | Inhibition of myointimal proliferation, in words ([3]; low dose 20 μg/kg/day, from two days prior to injury): effective | Inhibition of smooth muscle cell proliferation, in words [4]: nearly complete inhibition | Hyperplasia: ratio of width of intimal and medial layers ([5]; two days pre-treatment and days 4-7, sacrifice day 14, individual rats): 0.46 ± 0.08 and 0.28 ± 0.03 and 0.52 ± 0.05 and 0.69 ± 0.02 | Hyperplasia: ratio of width of intimal and medial layers, mean ([5]; group mean, N 4): 0.48 | Inhibition of growth hormone release, in words (growth hormone release): less active | Potency for growth hormone suppression in vivo, relative to somatostatin 14 (growth hormone release): 5 | % Intimal hyperplasia ([6]; aorta, female rabbits): 13.0% and 6.4% | Percentage of inhibition of myointimal hyperplasia ([6]; aorta, female rabbits): ~43% | % Intimal hyperplasia ([6]; aorta, male rabbits): 17.0% | Percentage of inhibition of myointimal hyperplasia ([6]; aorta, male rabbits): ~32% | % Intimal hyperplasia [6, 9]: 9.3% and 9.5% and 7.7% and 6.5% | Percentage of inhibition of myointimal hyperplasia [6, 9]: ~33% | % Intimal hyperplasia [6, 10]: 16.0% and 6.4% and 14.0% | Percentage of inhibition of myointimal hyperplasia [6, 10]: ~39% | % Intimal hyperplasia [6, 11]: 6.6% | Percentage of inhibition of myointimal hyperplasia [6, 11]: about 41% | Percentage of inhibition of myointimal hyperplasia ([6]; external iliac artery, male rabbits): ~20%

D-Phe--Cys--Phe-D-Trp--Lys--Thr--Cys--Thr--NH2 [BIM 23012]
Intimal/Media Ratio [3, 7]: 2.3 ± 0.4 | Intimal/Media Ratio [3, 8]: 1.6 ± 0.4 | Inhibition of myointimal (smooth muscle cell) proliferation of the carotid artery, in words [3]: did not inhibit | Potency for growth hormone suppression in vivo, relative to somatostatin 14 (growth hormone release): 62

D-Trp--Lys--Abu--Phe--Me--Ala--Tyr [BIM 23027]
Intimal/Media Ratio [3, 7]: 1.6 ± 0.2 | Intimal/Media Ratio [3, 8]: 1.5 ± 0.2 | Inhibition of myointimal (smooth muscle cell) proliferation of the carotid artery, in words [3]: did not inhibit | Inhibition of growth hormone release, in words (growth hormone release): most potent | Potency for growth hormone suppression in vivo, relative to somatostatin 14 (growth hormone release): 100

[Mpa]Y[dW]KVCF-NH2 (cysteine pairing not given here) [BIM 23030]
Intimal/Media Ratio [3, 7]: 1.6 ± 0.2 | Intimal/Media Ratio [3, 8]: 2.2 ± 0.5 | Inhibition of myointimal (smooth muscle cell) proliferation of the carotid artery, in words [3]: did not inhibit | Potency for growth hormone suppression in vivo, relative to somatostatin 14 (growth hormone release): 0.5
